The values below are quoted from earlier work in US11583508B2, “Use of mitoxantrone liposome for treating non-Hodgkin's lymphoma” (CSPC ZHONGQI PHARMACEUTICAL TECHNOLOGY (SHIJIAZHUANG) CO., …, priority 2018, dated 2023).

The series concerns relapsed/refractory PTCL (RR-PTCL). The following applies: monotherapy, second-line.

Consider `O=C(/C=C/c1cccc(S(=O)(=O)Nc2ccccc2)c1)NO` [Belinostat], for which the “Primary endpoint: (ORR, %)” value is listed as 25.8%.

With `C#CCC(Cc1cnc2nc(N)nc(N)c2n1)c1ccc(C(=O)N[C@@H](CCC(=O)O)C(=O)O)cc1` (some centres unmarked) [Pralatrexate], the “Primary endpoint: (ORR, %)” value is 27%.
